Results on 87 compounds are retold here after a melting point compilation (Tetko et al.).

In general, melting point refers to the temperature of the solid-liquid transition. In the case of `COc1ccc(-c2nn(-c3ccccc3)cc2CC(=O)O)cc1`, the melting point was in the range of 161 to 163 °C.

`Cc1ccc(Oc2ccc(N)cn2)cc1C` showed a melting point of 56 to 58 °C.

Compound `CCOC(=O)c1sc(O)nc1C` returned a melting point of 171 to 173 °C.

Consider `CNCC(O)COc1ccc([N+](=O)[O-])cc1` (configuration not stated), for which the melting point fell in the range of 142 to 144 °C.

`COCCOc1ccc(C(C)=O)cc1OC` gave a melting point of 85 to 87 °C.

`Nc1ccccc1NC(=O)CC1C=CCC1` (configuration not stated) came in with a melting point of 128 to 130 °C.

As to `CC1Cc2ccccc2N1Cc1ccoc1C(=O)O` (configuration not stated), the melting point lay in the range of 170 to 172 °C.

In the case of `Cc1nc(-c2ccccc2N)no1`, the melting point is 77 to 79 °C.

For the compound `NCCc1ccc(S(=O)(=O)N2CCCCC2)s1`, the melting point lay within 74 to 76 °C.

In turn, `O=C1CNC(=O)N1C1CC1` showed a melting point of 144 to 146 °C.

Regarding `O=C(OCCl)OC1CCCCC1`, the melting point was 36 to 38 °C.

`COc1cc(OC)cc(C(=O)N2CCC(C(=O)O)CC2)c1` gave a melting point of 164 to 166 °C.

In the case of `COc1ccc(C(CNC(=O)CCl)c2c[nH]c3ccccc23)cc1` (configuration not stated), the melting point is 157 to 159 °C.

For `N#Cc1nc(Cl)cc(N)c1N`, the melting point was 249 to 251 °C.

`CC(C)C(=O)N1CCCC(C(=O)O)C1` (configuration not stated) yielded a melting point of 131 to 133 °C.

`O=C1Nc2c(ccc(Cl)c2Cl)C1=O` had a melting point of 203 to 205 °C.

For the compound `COC(=O)c1cncc(C(=O)O)c1`, the melting point was in the range of 225 to 227 °C.

Regarding `NS(=O)(=O)c1ccc(Br)c([N+](=O)[O-])c1`, the melting point lay in the range of 185 to 187 °C.

In the case of `CSc1cccc(Cl)c1C#N`, the melting point lay within 114 to 116 °C.

Compound `O=C(O)c1cnc2onc(C3CC3)c2c1` came in with a melting point of 206 to 208 °C.

Regarding `CC(=O)Nc1cc(C(=O)CCl)ccc1O`, the melting point fell in the range of 188 to 190 °C.

With `O=C(O)c1n[nH]c2ccc(Cl)cc12`, the melting point fell in the range of 271 to 273 °C.

In the case of `NNC(=O)Cn1ccc(C(F)(F)F)n1`, the melting point was in the range of 157 to 159 °C.

Take `C#CCOc1cccc(C#N)c1`: the melting point is 61 to 63 °C.

As for `O=C(Nc1ccccc1)C1CCN(C(=O)CCl)CC1`, the melting point was 143 to 145 °C.

`O=C(O)c1cc2c(F)ccc(F)c2[nH]1` showed a melting point of 229 to 231 °C.

As for `Oc1ccc(OCc2cccnc2)cc1`, the melting point was 157 to 159 °C.

As to `O=c1[nH]c(CCl)nc2scc(-c3ccccc3)c12`, the melting point was in the range of 227 to 229 °C.

`CC(C)c1c(C(=O)O)cnc2ncnn12` displayed a melting point of 207 to 209 °C.

In turn, `O=C(O)Cn1cc(C(F)(F)F)ccc1=O` yielded a melting point of 218 to 220 °C.

On to `O=C(O)c1c[nH]nc1-c1cccnc1`, for which the melting point lay within 255 to 257 °C.

For the compound `O=[N+]([O-])c1cccc(-c2nccs2)c1`, the melting point lay within 238 to 240 °C.

Compound `NC(=O)c1c(NC(=O)CCl)sc2c1CCCC2` registered a melting point of 236 to 238 °C.

For the compound `N#Cc1ccc(F)c(CO)c1`, the melting point fell in the range of 48 to 50 °C.

Compound `O=C(CCl)NCc1ccccc1[N+](=O)[O-]` returned a melting point of 93 to 95 °C.

As to `Cc1nn(-c2ccccc2)c2sc(C(=O)NN)cc12`, the melting point was in the range of 264 to 266 °C.

Compound `Clc1ccc(-n2cccn2)nn1` displayed a melting point of 142 to 144 °C.

`Cc1noc(-c2cccnc2Cl)n1` displayed a melting point of 65 to 67 °C.

The compound `NC(=O)c1cccc([N+](=O)[O-])c1O` came in with a melting point of 154 to 156 °C.

As for `NCC(O)COc1cccc(Cl)c1Cl` (configuration not stated), the melting point fell in the range of 110 to 112 °C.

Take `COc1ccc(C(=O)N2CCOCC2)cc1N`: the melting point was 150 to 152 °C.

In turn, `Nc1nc2ccc(C(=O)O)cc2o1` yielded a melting point of 337 to 339 °C.

Compound `Cc1nn(C)c(=O)c(C(=O)N2CSCC2C(=O)O)c1C` (configuration not stated) showed a melting point of 209 to 211 °C.

Compound `CC(=O)NCCNCc1ccccc1` returned a melting point of 51 to 53 °C.

As to `O=C(O)C1CCCN1C(=O)c1ccc(Cl)s1` (configuration not stated), the melting point was in the range of 127 to 129 °C.

For the compound `Cc1cc(C#N)ccc1Oc1ccc(C(=O)O)cc1`, the melting point is 212 to 214 °C.

Compound `Cc1ccc2c(C)c(CCC(=O)O)c(=O)oc2c1` yielded a melting point of 161 to 163 °C.

In turn, `O=C(O)Cc1csc(-c2ccc(Cl)cc2Cl)n1` had a melting point of 159 to 161 °C.

Compound `Cc1ccc(-c2n[nH]cc2Br)cc1` returned a melting point of 104 to 106 °C.

For `Cn1cccc1C(=O)NN`, the melting point was 113 to 115 °C.

In the case of `CCNC(=O)NCCO`, the melting point was 53 to 55 °C.

`N#Cc1ccc(-c2cnc(CCl)o2)cc1` displayed a melting point of 124 to 126 °C.

As to `O=C(O)COc1ccc2c3c(c(=O)oc2c1)CCC3`, the melting point was 170 to 172 °C.

`CCCNS(=O)(=O)c1cccc(C(=O)O)c1` gave a melting point of 199 to 201 °C.

In the case of `Cc1cc(C)c2ncc(C(=O)O)c(O)c2c1`, the melting point was 282 to 284 °C.

On to `Cc1ccc(SC(C(=O)O)c2ccccc2)c(C)c1` (configuration not stated), for which the melting point fell in the range of 130 to 132 °C.

In turn, `CC(C)Cn1c(=O)n(C)c(=O)c2cc(C(=O)O)cnc21` displayed a melting point of 219 to 221 °C.

With `Cc1ccccc1-c1nnc(N)[nH]1`, the melting point is 219 to 221 °C.

On to `CCOC(=O)c1sc(/N=C/N(C)C)c(C#N)c1C`, for which the melting point was 151 to 153 °C.

Compound `Cc1ccc(-n2nnnc2S)c(C)c1` gave a melting point of 110 to 112 °C.

On to `NCc1cc(C(N)=O)no1`, for which the melting point is 149 to 151 °C.

Regarding `COCc1nc(Cl)c2c(-c3ccccc3)csc2n1`, the melting point lay in the range of 62 to 64 °C.

On to `Cc1cc(C)nc(SCc2ccc(C(=O)NN)cc2)n1`, for which the melting point lay within 135 to 137 °C.

`O=[N+]([O-])c1cc([N+](=O)[O-])c(Br)cc1F`: the melting point fell in the range of 92 to 94 °C.

The compound `O=Cc1cnc(-c2cccnc2)s1` yielded a melting point of 139 to 141 °C.

In turn, `O=C(NCCCCl)OCc1ccccc1` had a melting point of 30 to 32 °C.

`O=C(O)CCc1nccs1` came in with a melting point of 123 to 125 °C.

Compound `Clc1cc2nncn2cn1` gave a melting point of 111 to 113 °C.

For the compound `N#CCC(=O)N1CCSCC1`, the melting point was in the range of 103 to 105 °C.

For `Cc1sc2ncnc(N)c2c1C`, the melting point was in the range of 257 to 259 °C.

On to `O=C(O)c1cc([N+](=O)[O-])ccc1I`, for which the melting point fell in the range of 194 to 196 °C.

For `Cc1ncc(CO)c(C)n1`, the melting point lay within 52 to 54 °C.

The compound `CN1N=C(C(N)=O)CCC1=O` yielded a melting point of 169 to 171 °C.

In turn, `O=C(O)c1csc(I)c1` registered a melting point of 136 to 138 °C.

`CC(Sc1ncccc1C(=O)O)C(=O)N1CCCC1` (configuration not stated) returned a melting point of 192 to 194 °C.

In turn, `CNc1scnc1C(=O)O` returned a melting point of 99 to 101 °C.

Regarding `Cc1cc(C(=O)O)[nH]c(=O)n1`, the melting point lay in the range of 209 to 211 °C.

`O=C1CC(c2ccccc2)=NN1` registered a melting point of 246 to 248 °C.

In turn, `Cc1nc2cc(C(=O)O)ccc2n1-c1ccccc1` came in with a melting point of 210 to 212 °C.

Turning to `O=C(O)c1c[nH]nc1-c1ccccc1Cl`, the melting point is 255 to 257 °C.

Compound `O=C(O)Cc1n[nH]c2ccccc12` returned a melting point of 167 to 169 °C.

`CC1(c2ccc(F)cc2)NC(=O)NC1=O` (configuration not stated) yielded a melting point of 204 to 206 °C.

The compound `COc1ccc(O)c(C(N)=O)c1` gave a melting point of 151 to 153 °C.

`CC(C)CNc1c(N)n(Cc2ccccc2)c(=O)[nH]c1=O` showed a melting point of 211 to 213 °C.

`COc1c(Cl)cc(Br)cc1S(N)(=O)=O` displayed a melting point of 214 to 216 °C.

`COc1cccc(NC(=O)CC#N)c1` yielded a melting point of 154 to 156 °C.

Turning to `Cn1nnnc1SCC(=O)Nc1ccc(C(=O)O)cc1`, the melting point fell in the range of 190 to 192 °C.
